Test results from ChEMBL document CHEMBL1201862, “PubChem BioAssay data set” (2004).
Calls of active or inactive are those of the source.

What was measured:
[1] = inhibitors of PGC1a acetylation in cells, dose response, cell-based, cherry-picked samples (AID 720514); format: functional;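 further: potency may reflect raised or lowered acetylation signal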
[2] = insulin promoter down-regulators in MIN6 cells, imaging, high-content screening, mouse beta cells (AID 1628); format: functional
[3] = cytotoxicity in MIN6 insulinoma cells, dose response, cytotoxicity control, cell-based, mouse insulinoma (AID 2122); format: functional;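 further: confirmatory high-throughput counterscreen run to flag cytotoxic compounds; mouse MIN-6 beta cells carrying an insulin promoter eGFP reporter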
[4] = molecular target: T1, Ubiquitin-conjugating enzyme E2 N (Homo sapiens, UniProt P61088); format: functional;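 further: Dose-response confirmation in a TR-FRET assay detecting UBC13-driven polyubiquitin chain formation, inhibition measured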
T1 sequence (P61088 whole entry): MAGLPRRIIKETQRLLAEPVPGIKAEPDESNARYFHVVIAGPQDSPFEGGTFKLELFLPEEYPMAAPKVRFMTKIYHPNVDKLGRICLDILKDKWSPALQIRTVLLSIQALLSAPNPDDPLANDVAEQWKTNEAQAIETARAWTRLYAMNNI

[5] = molecular target: T2, Replicative DNA helicase DnaB (Mycobacterium tuberculosis, UniProt P9WMR3); test: DnaB intein splicing inhibitors, dose response, biochemical, cell-free fluorescence (AID 449749); format: functional
T2 sequence (P9WMR3 whole entry): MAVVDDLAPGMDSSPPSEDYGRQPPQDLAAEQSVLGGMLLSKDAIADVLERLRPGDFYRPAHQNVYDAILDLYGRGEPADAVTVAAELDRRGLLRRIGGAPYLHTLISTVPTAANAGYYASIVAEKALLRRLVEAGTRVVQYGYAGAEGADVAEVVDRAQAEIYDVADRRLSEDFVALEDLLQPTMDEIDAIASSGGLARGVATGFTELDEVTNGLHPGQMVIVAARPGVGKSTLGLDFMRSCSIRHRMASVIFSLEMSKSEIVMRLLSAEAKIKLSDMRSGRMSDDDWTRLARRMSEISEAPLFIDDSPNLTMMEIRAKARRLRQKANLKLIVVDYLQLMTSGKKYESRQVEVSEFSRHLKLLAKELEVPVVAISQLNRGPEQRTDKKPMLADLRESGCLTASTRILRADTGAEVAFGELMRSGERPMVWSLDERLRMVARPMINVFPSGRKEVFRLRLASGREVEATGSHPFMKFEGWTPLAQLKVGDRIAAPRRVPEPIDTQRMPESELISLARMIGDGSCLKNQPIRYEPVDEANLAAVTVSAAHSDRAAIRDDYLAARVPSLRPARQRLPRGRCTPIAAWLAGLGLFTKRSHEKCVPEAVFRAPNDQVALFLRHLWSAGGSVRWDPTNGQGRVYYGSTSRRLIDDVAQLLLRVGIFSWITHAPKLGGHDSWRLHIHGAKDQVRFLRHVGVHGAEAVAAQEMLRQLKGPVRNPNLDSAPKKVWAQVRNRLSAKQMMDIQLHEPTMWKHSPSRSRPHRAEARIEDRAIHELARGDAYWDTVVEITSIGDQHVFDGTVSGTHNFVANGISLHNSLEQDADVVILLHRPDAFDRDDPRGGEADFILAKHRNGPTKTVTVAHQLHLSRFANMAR

Protein RecA = molecular target: T3, Protein RecA (Mycobacterium tuberculosis, UniProt P9WHJ3); test: Fluorescence Cell-Free Homogeneous Dose Retest to Identify Inhibitors of RecA-Intein Splicing Activity. [Related pubchem assays (depositor defined):AID2097, AID2223, AID489010, AID492950]; format: functional
T3 sequence (P9WHJ3 whole entry): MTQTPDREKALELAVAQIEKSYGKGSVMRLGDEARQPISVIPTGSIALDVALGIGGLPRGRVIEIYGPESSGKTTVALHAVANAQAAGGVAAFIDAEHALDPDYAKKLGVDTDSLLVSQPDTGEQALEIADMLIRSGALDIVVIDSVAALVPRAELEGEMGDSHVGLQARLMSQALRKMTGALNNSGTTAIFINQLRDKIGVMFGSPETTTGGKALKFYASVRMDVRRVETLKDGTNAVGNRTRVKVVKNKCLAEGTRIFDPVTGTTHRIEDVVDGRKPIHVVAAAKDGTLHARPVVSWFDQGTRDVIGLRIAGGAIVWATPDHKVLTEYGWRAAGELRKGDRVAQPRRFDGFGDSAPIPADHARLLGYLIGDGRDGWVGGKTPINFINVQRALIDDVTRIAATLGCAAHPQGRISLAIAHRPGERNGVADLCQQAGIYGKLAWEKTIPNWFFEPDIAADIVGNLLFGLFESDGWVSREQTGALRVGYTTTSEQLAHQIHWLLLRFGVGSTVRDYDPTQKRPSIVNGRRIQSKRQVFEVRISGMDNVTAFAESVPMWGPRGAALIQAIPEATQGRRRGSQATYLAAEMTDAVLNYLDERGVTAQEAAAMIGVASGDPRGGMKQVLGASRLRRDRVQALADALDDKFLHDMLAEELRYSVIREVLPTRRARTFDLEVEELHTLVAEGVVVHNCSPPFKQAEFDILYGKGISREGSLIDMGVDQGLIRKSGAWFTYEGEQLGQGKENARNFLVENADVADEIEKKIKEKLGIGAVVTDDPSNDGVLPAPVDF

INS1 = test: beta cell apoptosis inhibitors, cytokine rescue, dose response, luminescence, retest (AID 449756); format: functional, cell-based; conditions: Rattus norvegicus;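 further: cell death triggered by IL-1 beta plus TNF-alpha plus IFN-gamma mixture; protective hits raise ATP signal compared with cytokine alone wells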
Cytochrome P450 2C9 = Cytochrome P450 2C9 (Homo sapiens, UniProt P11712)
Cytochrome P450 3A4 = Cytochrome P450 3A4 (Homo sapiens, UniProt P08684);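 further: CYP3A4 tested as one member of a cytochrome P450 panel screen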
[6] = molecular target: T4, Heat shock factor protein 1 (Mus musculus, UniProt P38532); test: HSF1 potentiators in luciferase reporter cells, confirmation, cell-based, NIH3T3, luminescence, dose retest (AID 435004); format: functional;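 further: stress induced by proteasome inhibitor MG132 added 30 min after compound; luciferase reporter driven by HSF1 response element in NIH3T3 cells; actives raise luminescence as potentiators of the MG132 stress response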
T4 sequence (P38532 whole entry): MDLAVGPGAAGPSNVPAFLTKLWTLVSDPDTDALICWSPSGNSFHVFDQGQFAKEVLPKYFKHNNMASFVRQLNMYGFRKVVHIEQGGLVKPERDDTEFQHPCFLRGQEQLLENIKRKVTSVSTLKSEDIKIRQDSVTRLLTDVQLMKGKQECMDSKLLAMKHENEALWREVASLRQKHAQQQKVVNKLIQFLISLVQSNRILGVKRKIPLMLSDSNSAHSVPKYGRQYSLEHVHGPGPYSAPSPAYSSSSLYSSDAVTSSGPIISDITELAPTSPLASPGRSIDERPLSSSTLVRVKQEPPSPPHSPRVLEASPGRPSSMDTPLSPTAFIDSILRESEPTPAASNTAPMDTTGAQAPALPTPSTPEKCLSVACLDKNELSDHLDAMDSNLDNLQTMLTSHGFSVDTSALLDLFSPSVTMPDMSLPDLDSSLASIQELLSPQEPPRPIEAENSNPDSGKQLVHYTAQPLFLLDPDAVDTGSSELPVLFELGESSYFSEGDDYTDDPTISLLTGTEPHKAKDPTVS

[7] = cytotoxicity in HEK-293T cells, dose response, cytotoxicity control for TCR NF-kB inhibitor project, luminescence, T-cell screen hits (AID 489026); format: functional, cell-based;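 further: cells exposed to compound about 14 hours before the viability readout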
BJ [8] = test: cytotoxicity toward BJ-TERT fibroblasts, dose response, cell-based, RAS-independent, luminescence (AID 1933); format: functional; conditions: Homo sapiens
BJ [9] = test: cells; format: functional, cell-based; conditions: Homo sapiens
BJ [10] = test: cytotoxicity toward BJ-TERT-LT-ST fibroblasts, dose response, cell-based, RAS-independent, luminescence (AID 1935); format: functional; conditions: Homo sapiens;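 further: BJ fibroblasts immortalized with TERT plus LT and ST oncogenes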
[11] = cytotoxicity toward DRD oncogenic fibroblasts, dose response, cell-based, non-viral oncogenic, luminescence (AID 1934); format: functional; conditions: Homo sapiens
[12] = molecular target: Eukaryotic translation initiation factor 4E (Mus musculus, UniProt P63073); test: eIF4E–eIF4G protein interaction inhibitors, dose response, biochemical, TR-FRET (AID 855); format: functional;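 further: potency for disrupting eIF4E binding to eIF4GI seen as loss of FRET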
[13] = microbe, parasite or virus in culture; format: functional; conditions: Mycobacterium tuberculosis
cells [14] = format: functional, cell-based
cells [15] = format: functional, cell-based; remark: listed apart in the source
[16] = THP-1 cell cytotoxicity, dose response, cytotoxicity control for Vif-APOBEC3G degradation inhibitor project, THP-1 cells (AID 1117359); format: functional; conditions: Human immunodeficiency virus 1, THP-1

Cytochrome P450 2C9, sequence (P11712 whole entry): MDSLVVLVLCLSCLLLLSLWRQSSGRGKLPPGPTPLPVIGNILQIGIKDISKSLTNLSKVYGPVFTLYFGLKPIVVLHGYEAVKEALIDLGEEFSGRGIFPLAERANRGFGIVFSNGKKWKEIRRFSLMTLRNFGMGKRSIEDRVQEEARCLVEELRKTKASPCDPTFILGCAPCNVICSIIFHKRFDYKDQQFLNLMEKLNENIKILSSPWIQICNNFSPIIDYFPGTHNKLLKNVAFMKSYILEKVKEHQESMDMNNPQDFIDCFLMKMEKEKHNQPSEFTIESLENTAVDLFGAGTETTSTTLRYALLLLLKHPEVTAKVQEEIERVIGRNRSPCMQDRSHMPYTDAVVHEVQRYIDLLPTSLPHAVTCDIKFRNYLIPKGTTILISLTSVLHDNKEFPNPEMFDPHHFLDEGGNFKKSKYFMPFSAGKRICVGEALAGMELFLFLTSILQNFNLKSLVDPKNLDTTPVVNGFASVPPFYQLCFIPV
Cytochrome P450 3A4, sequence (P08684 whole entry): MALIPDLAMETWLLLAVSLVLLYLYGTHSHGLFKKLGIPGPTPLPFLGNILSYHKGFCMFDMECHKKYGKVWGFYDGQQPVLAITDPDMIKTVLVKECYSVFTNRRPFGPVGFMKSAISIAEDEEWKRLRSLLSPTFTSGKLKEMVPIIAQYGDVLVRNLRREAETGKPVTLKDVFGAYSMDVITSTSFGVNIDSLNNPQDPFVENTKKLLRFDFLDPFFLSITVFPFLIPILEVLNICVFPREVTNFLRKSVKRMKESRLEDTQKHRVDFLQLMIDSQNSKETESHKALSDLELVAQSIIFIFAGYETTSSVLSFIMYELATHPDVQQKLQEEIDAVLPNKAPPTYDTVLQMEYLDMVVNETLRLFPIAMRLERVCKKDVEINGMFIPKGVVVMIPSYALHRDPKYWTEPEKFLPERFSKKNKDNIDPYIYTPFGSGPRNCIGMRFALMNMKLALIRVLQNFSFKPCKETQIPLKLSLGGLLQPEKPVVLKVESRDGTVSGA
Eukaryotic translation initiation factor 4E, sequence (P63073 whole entry): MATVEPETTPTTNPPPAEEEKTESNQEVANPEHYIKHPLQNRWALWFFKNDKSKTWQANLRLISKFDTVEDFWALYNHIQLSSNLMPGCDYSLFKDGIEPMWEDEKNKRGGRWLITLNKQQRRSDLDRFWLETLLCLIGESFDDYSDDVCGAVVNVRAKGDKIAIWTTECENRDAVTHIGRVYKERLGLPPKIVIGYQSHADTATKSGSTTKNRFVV

SMILES: COc1cc(CNCCN2CCOCC2)ccc1OCc1ccc(Cl)cc1Cl
- AC50 [1]: 17.3 µM (active)

SMILES: c1ccc(Nc2nc(NCc3ccco3)c3ccccc3n2)cc1
- IC50 [2]: 1.22 µM (active)
- IC50 [3]: 1.08 µM (active)
- IC50 [4]: > 20 µM (inactive)
- AC50 [5]: 3.66 µM (active)
- EC50 (Protein RecA): 12 µM (active)
- AC50 (INS1): 5.14 µM (active)

SMILES: O=c1[nH]c(=O)n(Cc2ccco2)c2c1C(C(F)(F)F)(C(F)(F)F)NC(CCC1CCCCC1)=N2
- AC50 (Cytochrome P450 2C9): 2.82 µM (inconclusive)
- AC50 (Cytochrome P450 3A4): inconclusive

SMILES: Cc1nc2ccccc2n1CC(O)COCC1CC=CCC1 (configuration not stated)
- IC50 [2]: 2.27 µM (active)
- IC50 [3]: 1.67 µM (active)
- EC50 [6]: > 260 µM (inactive)

SMILES: O=C(Nc1ccc(CSc2ccccc2)cc1)c1ccc(CN2CCOCC2)cc1
- IC50 [7]: > 80 µM (inactive)

SMILES: CCN(CC(=O)Nc1ccccc1-c1ccccc1)Cc1nc(O)c2ccccc2n1
- EC50 (BJ [8]): 20.1 µM (active)
- EC50 (BJ [9]): 67.2 µM (active)
- EC50 (BJ [10]): > 75 µM (not active)
- EC50 [11]: 17.9 µM (active)

SMILES: Cc1nc(N2CCCCC2)sc1C(=O)c1cccc([N+](=O)[O-])c1
- EC50 (BJ [8]): > 150 µM (not active)
- EC50 (BJ [9]): > 150 µM (not active)
- EC50 (BJ [10]): > 150 µM (not active)
- EC50 [11]: > 150 µM (not active)

SMILES: COc1ccc(-c2noc(CSc3nc(N)c(-c4ccccc4)c(=O)[nH]3)n2)cc1OC
- IC50 [12]: > 64 µM (inactive)

SMILES: CCCCOP(=O)(OCCCC)C(Nc1ccc(C(=O)OCC)cc1)c1ccncc1 (configuration not stated)
- CC50 [13]: > 40 µM (active)

SMILES: O=S(=O)(/C=C/c1ccccc1)N1CCNCC1
- EC50 (cells [14]): > 350 µM (not active)
- EC50 (cells [15]): > 350 µM (not active)

SMILES: CCCC(C)NC(=O)CSCc1ccc(OC)cc1 (configuration not stated)
- CC50 [16]: > 40 µM (active)

SMILES: COc1cccc(-n2c(S)nnc2-c2cccc(S(=O)(=O)N(C)C)c2)c1
- AC50 [1]: 39 µM (active)
